US7199286B2, “Plant-derived novel pathogen and SAR-induction chemical induced promoters, and fragments thereof” (Syngenta Participations AG, priority 1999, dated 2007)

What was measured:
Assay type in all cases: in vivo, Arabidopsis
[1] = test system: NI16 RNA; test: Induction of NI16 mRNA by SA and BTH spray, RNA blot hybridization; details: WS-O plants sprayed with 5 mM SA or 300 μm BTH
Method: RNA is prepared from 4 week old Wassilewskija (WS—O) plants, that are either sprayed with water, a 5 mM solution of sodium salicylate (SA), or a 300 μm solution of benzo-(1,2,3)-thiadiazole-7-carbothioic acid S-methyl ester (BTH). […] RNA extractions and RNA blot hybridizations are performed as described previously by Ausubel et al. (1987). NI16 RNA is induced 5–10 fold within 15 minutes of SA or BTH induction and reaches a peak of approximately 50 fold induction within 2 hours of SA treatment and 25 fold induction with BTH treatment.

[2] = test system: NI16 transcript; test: NI16 transcript accumulation in nim1-4 plants after BTH treatment; details: after 2 and 24 hours of BTH treatment
[3] = test system: NI16 gene; test: NI16 gene induction in NIM1-overexpressing plants treated with BTH
[4] = test system: NI16 RNA; test: Quantitative Northern, NI16 level in wild type and NI16-overexpressing lines after BTH; details: for NI16 level (relative): 24 hours after induction
Excerpt: (§1) A NI16 construct is made in binary vector pBAR35S (obtained from Jeff Dangi, UNC-Chapel Hill). First a full-length clone is obtained by cloning the 5′ sequence of NI16 (obtained by 5′ RACE and cloned into AT vector pCR2.1) into the EcoRI site of the original pJG4-5 clone as an EcoRI fragment. Then the entire coding region of NI16 is PCR cloned back into pCR2.1 with the primers 16F and 16 R (Table 1). The resulting plasmid is cut with XbaI and SacI for cloning into pBAR35S. The clone is transformed into Agrobacterium strain GV3101 (Koncz and Schell, 1986). WS—O and nim1-4 plants are transformed using standard procedures and the resulting T1 seed is selected by spraying with a 60 μg/ml solution of BASTA every two days for 6 days after germination. BASTA resistant plants are analyzed for levels of NI16 and PR-1 RNA after 4 weeks.
(§2) 4 WS—O plants expressing NI16 above wild type levels are recovered. All have elevated levels of PR-1 RNA as detected on Northern blots. All 4 plants are taken to the T3 generations. Quantitative Northerns are done on two of the T3 lines, one with a relatively low level of N116 RNA (1-1B) and one with a high level of N116 RNA (2-1B). Northerns are hybridized with NI16 and PR-1 probes. Measurements are taken with a Molecular Dynamics Phosphoimager, which directly measures counts per unit area. The amount of PR-1 RNA correlates directly with the amount of NI16 RNA, i.e., the highest expressers of NI16 have the highest levels of PR-1. (Table 2). […] PR-1 levels are induced at the same rate in the two NI16 lines as the WS—O control, however steady state PR-1 levels are higher, especially at 0 and 10 μm BTH. NI16 may therefore be necessary for the SAR response, and overexpression of NI16 may activate a subset of the response. PR-1 is also elevated in nahG, nim1-1 and nim1-4 plants overexpressing NI16. Out of 34 nim1-1 T1 plants containing the 35S-NI16 construct, 22 have elevated levels of PR-1. Similarly, 18/26 nim1-4 and 20/27 nahG primary transformants have elevated PR-1 levels. In each case, high NI16 expression is correlated with high PR-1 levels. This is significant because nim1 and nahG plants are normally deficient in their ability to induce PR1 in response to pathogens. Furthermore, this provides evidence that overexpression of NI16 can at least partially compensate for the absence of SA and a functional NIM protein in plants.

[5] = test system: PR-1 RNA; test: Quantitative Northern, PR-1 level in wild type and NI16-overexpressing lines after BTH; details: 24 hours after induction
Excerpt: as §1, §2

[6] = NI16-overexpressing line 1-1B, 10 μm BTH
[7] = NI16-overexpressing line 1-1B, 100 μm BTH
[8] = NI16-overexpressing line 2-1B, 10 μm BTH
[9] = NI16-overexpressing line 2-1B, 100 μm BTH

## CSC(=O)c1cccc2nnsc12 [BTH, benzo(1,2,3)thiadiazole-7-carbothioic acid S-methyl ester]
[1]
  time NI16 transcript remains highly induced after treatment: at least 48 hours
[1]; peak, within 2 hours of SA treatment
  NI16 RNA peak induction: ~25 fold
[2]
  NI16 transcript accumulation: unable to accumulate NI16 transcript
[3]
  NI16 gene induction: induced
[4]; [6]
  NI16 level (relative): 1400
[4]; [7]
  NI16 level (relative): 1480
[4]; [8]
  NI16 level (relative): 14000
[4]; [9]
  NI16 level (relative): 12000
[4]; NI16 transgenic lines, BTH rates lower than normally used for protection to Peronospora parasitica
  effect on amount of NI16 RNA: do not significantly increase the amount of NI16 RNA
[4]; genotype WS, 10 μm BTH
  NI16 level (relative): 10
[4]; genotype WS, 100 μm BTH
  NI16 level (relative): 90
[5]; [6]
  PR-1 level (relative): 30
[5]; [7]
  PR-1 level (relative): 120
[5]; [8]
  PR-1 level (relative): 70
[5]; [9]
  PR-1 level (relative): 140
[5]; genotype WS, 10 μm BTH
  PR-1 level (relative): 30
[5]; genotype WS, 100 μm BTH
  PR-1 level (relative): 90
